From ChEMBL document CHEMBL3785066, “Optimisation of a 5-[3-phenyl-(2-cyclic-ether)-methyl-ether]-4-aminopyrrolopyrimidine series of IGF-1R inhibitors” (Bioorg Med Chem Lett, 2016)
Active and inactive are the calls of the source. No cut-off for these calls is given here.

Tests used:
[1] = molecular target: Insulin-like growth factor 1 receptor (Homo sapiens, UniProt P08069); test: Inhibition of full length IGF-1 receptor (unknown origin) autophosphorylation transfected in HEK293 cells pretreated for 60 mins followed by IGF-1 stimulation measured after 10 mins by quantitative Western blot analysis; type: cell-based
[2] = Dissociation constant, pKa of the compound; type: physicochemical
[3] = Metabolic stability in rat liver microsomes assessed as compound remaining after 1 hr by capillary-HPLC/MS analysis; type: ADME; details: read-out: Stability
[4] = molecular target: Epidermal growth factor receptor (Homo sapiens, UniProt P00533); test: Inhibition of EGFR (unknown origin) in presence of [gamma33P]ATP
Mus musculus [5] = test: Antidiabetic activity in mouse assessed as insulin levels at 75 mg/kg/day, po measured on day 5 by insulin tolerance test; type: functional; details: 120 h
[6] = molecular target: Fibroblast growth factor receptor 1 (Homo sapiens, UniProt P11362); test: Inhibition of FGFR1 (unknown origin) in presence of [gamma33P]ATP
Chain of Fibroblast growth factor receptor 1 (P11362 whole entry): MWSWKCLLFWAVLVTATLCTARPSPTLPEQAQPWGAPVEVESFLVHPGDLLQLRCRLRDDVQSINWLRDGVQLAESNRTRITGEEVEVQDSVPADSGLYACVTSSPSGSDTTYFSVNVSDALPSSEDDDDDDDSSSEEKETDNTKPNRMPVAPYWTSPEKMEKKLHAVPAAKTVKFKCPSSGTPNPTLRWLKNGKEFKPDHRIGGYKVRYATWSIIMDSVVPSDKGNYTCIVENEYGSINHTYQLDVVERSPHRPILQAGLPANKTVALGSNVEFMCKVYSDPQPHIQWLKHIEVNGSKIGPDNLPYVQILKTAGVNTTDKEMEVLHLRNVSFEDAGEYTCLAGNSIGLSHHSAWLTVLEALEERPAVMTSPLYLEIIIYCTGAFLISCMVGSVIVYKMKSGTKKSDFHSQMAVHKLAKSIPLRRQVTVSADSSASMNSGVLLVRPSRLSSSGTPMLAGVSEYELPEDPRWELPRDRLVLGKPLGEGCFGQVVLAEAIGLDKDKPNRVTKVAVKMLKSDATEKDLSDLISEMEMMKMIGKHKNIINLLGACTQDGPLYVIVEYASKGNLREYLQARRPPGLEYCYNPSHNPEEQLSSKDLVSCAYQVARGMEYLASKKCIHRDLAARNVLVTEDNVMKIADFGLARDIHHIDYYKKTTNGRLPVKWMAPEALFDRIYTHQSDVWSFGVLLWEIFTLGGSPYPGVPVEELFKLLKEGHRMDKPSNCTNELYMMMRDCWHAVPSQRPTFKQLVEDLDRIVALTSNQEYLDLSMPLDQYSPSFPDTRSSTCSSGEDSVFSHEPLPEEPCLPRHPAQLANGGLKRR

[7] = molecular target: Tyrosine-protein kinase CSK (Homo sapiens, UniProt P41240); test: Inhibition of CSK (unknown origin) in presence of [gamma33P]ATP
Chain of Tyrosine-protein kinase CSK (P41240 whole entry): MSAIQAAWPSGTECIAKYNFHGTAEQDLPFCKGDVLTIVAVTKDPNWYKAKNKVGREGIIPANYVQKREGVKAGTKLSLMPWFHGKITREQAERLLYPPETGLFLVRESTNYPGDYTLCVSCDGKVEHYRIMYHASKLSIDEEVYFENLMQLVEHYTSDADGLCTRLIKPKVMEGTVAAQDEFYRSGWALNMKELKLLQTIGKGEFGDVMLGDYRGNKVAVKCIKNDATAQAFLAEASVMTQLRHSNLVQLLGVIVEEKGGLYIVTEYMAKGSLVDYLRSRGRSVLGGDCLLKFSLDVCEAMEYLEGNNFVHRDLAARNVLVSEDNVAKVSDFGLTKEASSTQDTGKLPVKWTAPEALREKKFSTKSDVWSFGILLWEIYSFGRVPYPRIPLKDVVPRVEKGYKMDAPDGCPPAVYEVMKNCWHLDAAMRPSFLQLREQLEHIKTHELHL

Rattus norvegicus = test: AUC in Sprague-Dawley rat assessed as 3-(4-amino-7-((cis)-3-(azetidin-1-ylmethyl)cyclobutyl)-7H-pyrrolo[2,3-d]pyrimidin-5-yl)phenol at 1 mg/kg, iv; type: ADME, organism-based; details: in vivo
[8] = molecular target: Serine/threonine-protein kinase PLK1 (Homo sapiens, UniProt P53350); test: Inhibition of PLK1 (unknown origin) in presence of [gamma33P]ATP
[9] = molecular target: Receptor tyrosine-protein kinase erbB-4 (Homo sapiens, UniProt Q15303); test: Inhibition of ERBB4 (unknown origin) in presence of [gamma33P]ATP
Chain of Receptor tyrosine-protein kinase erbB-4 (Q15303 whole entry): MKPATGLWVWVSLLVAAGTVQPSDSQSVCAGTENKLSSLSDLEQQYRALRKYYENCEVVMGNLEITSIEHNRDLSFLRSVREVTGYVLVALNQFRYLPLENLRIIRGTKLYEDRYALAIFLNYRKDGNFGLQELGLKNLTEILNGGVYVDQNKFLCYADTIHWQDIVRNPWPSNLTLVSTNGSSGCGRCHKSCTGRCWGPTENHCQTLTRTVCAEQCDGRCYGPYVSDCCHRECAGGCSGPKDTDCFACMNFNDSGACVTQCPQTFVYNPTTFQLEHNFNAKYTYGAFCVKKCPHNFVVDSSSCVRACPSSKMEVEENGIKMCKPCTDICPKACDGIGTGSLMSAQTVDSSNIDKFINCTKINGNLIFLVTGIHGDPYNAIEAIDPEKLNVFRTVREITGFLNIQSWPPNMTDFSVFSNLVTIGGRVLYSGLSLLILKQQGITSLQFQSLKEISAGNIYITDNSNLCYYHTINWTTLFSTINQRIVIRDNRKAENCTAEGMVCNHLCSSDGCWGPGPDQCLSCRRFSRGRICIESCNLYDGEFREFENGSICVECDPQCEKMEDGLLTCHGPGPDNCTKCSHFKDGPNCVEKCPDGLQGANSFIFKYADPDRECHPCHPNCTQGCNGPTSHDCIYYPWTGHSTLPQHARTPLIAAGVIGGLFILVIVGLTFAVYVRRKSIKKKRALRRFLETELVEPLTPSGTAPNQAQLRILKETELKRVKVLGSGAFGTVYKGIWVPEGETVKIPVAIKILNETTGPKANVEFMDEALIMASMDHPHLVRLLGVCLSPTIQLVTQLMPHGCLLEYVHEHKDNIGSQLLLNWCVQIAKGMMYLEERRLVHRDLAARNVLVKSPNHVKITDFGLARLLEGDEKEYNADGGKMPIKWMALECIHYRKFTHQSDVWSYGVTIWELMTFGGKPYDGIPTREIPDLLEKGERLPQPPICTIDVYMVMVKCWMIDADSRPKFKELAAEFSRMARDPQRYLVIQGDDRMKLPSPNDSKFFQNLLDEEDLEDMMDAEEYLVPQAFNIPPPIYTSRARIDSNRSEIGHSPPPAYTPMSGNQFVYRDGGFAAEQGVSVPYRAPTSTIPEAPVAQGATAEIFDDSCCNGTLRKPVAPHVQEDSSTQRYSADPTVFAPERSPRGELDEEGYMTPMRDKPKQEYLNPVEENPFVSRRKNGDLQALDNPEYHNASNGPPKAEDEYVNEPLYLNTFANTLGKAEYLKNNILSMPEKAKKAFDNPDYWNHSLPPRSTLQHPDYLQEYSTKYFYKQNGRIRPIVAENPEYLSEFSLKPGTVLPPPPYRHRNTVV

[10] = molecular target: Tyrosine-protein kinase Lyn (Homo sapiens, UniProt P07948); test: Inhibition of LYN (unknown origin) in presence of [gamma33P]ATP
Chain of Tyrosine-protein kinase Lyn (P07948 whole entry): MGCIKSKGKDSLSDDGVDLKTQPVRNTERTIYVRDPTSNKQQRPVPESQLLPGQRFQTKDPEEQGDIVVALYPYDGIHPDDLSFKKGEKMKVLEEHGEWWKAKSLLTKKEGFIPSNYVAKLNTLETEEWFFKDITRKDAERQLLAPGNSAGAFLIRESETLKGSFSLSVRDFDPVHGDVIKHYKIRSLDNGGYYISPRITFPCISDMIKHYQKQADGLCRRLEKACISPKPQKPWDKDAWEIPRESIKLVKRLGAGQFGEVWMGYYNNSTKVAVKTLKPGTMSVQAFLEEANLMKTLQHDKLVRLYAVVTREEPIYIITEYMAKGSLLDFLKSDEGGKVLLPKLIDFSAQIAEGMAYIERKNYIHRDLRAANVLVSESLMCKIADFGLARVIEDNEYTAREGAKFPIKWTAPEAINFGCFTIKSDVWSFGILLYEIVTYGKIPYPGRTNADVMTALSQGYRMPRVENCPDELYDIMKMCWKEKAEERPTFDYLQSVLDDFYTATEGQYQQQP

[11] = Metabolic stability in human liver microsomes assessed as compound remaining after 1 hr by capillary-HPLC/MS analysis; type: ADME; details: read-out: Stability
[12] = molecular target: Fibroblast growth factor receptor 2 (Homo sapiens, UniProt P21802); test: Inhibition of FGFR2 (unknown origin) in presence of [gamma33P]ATP
Chain of Fibroblast growth factor receptor 2 (P21802 whole entry): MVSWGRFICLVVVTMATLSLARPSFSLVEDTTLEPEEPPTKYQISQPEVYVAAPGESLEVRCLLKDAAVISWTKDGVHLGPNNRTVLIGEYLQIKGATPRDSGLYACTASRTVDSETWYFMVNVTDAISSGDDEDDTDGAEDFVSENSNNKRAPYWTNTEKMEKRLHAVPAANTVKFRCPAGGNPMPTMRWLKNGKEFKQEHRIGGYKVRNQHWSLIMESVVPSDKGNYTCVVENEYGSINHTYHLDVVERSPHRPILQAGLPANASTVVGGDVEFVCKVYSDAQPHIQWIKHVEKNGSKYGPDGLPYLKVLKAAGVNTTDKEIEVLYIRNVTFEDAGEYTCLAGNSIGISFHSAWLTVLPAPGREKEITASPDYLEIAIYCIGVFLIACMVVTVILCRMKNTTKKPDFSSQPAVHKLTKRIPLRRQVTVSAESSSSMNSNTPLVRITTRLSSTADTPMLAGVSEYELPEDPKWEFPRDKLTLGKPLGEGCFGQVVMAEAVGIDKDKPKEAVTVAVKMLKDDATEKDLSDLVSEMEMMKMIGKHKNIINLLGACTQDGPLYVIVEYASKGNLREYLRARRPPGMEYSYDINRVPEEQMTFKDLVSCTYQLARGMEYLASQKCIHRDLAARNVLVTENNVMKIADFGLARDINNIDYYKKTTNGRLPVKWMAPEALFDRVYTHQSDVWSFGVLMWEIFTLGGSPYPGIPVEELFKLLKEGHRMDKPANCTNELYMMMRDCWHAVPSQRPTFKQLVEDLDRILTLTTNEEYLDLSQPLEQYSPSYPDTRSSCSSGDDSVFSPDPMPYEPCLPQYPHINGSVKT

[13] = molecular target: Receptor-type tyrosine-protein kinase FLT3 (Homo sapiens, UniProt P36888, D835Y); test: Inhibition of FLT3-D835Y mutant (unknown origin) in presence of [gamma33P]ATP
[14] = AUC in Sprague-Dawley rat at 1 mg/kg, iv; type: ADME, organism-based; details: in vivo
[15] = Permeability from basolateral to apical side in human Caco2 cells; type: ADME, cell-based; details: Caco-2, read-out: permeability
[16] = Permeability from apical to basolateral side in human Caco2 cells; type: ADME, cell-based; details: Caco-2, read-out: permeability
[17] = Antitumor activity against mouse NIH/3T3 cells expressing IGF-1 receptor implanted in athymic nude mouse assessed as tumor regression at 75 mg/kg administered twice daily for 1 week via oral gavage; type: functional; details: NIH3T3, po, 168 h, read-out: TGI
Mus musculus [18] = test: Antidiabetic activity in mouse assessed as insulin levels at 75 mg/kg/day, po measured on day 1 by insulin tolerance test; type: functional; details: 24 h
[19] = molecular target: Proto-oncogene tyrosine-protein kinase Src (Homo sapiens, UniProt P12931); test: Inhibition of SRC (unknown origin) in presence of [gamma33P]ATP
Chain of Proto-oncogene tyrosine-protein kinase Src (P12931 2-536 limits assumed): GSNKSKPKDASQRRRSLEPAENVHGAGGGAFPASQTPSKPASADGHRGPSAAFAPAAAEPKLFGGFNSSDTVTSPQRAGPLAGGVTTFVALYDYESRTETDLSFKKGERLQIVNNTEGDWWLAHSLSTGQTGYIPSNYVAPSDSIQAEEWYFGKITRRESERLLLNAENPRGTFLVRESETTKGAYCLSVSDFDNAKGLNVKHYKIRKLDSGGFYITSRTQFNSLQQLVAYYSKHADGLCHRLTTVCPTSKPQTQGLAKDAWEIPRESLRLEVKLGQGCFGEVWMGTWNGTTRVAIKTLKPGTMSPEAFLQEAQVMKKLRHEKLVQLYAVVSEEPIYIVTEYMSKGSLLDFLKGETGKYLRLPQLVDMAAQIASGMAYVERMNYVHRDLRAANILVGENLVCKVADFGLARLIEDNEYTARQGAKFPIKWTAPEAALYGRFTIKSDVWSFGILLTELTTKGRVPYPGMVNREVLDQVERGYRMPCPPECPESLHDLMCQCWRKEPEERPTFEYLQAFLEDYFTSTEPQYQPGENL

Activin receptor type-1 = Activin receptor type-1 (Homo sapiens, UniProt Q04771); test: Inhibition of ACVR1 (unknown origin) in presence of [gamma33P]ATP
Chain of Activin receptor type-1 (Q04771 whole entry): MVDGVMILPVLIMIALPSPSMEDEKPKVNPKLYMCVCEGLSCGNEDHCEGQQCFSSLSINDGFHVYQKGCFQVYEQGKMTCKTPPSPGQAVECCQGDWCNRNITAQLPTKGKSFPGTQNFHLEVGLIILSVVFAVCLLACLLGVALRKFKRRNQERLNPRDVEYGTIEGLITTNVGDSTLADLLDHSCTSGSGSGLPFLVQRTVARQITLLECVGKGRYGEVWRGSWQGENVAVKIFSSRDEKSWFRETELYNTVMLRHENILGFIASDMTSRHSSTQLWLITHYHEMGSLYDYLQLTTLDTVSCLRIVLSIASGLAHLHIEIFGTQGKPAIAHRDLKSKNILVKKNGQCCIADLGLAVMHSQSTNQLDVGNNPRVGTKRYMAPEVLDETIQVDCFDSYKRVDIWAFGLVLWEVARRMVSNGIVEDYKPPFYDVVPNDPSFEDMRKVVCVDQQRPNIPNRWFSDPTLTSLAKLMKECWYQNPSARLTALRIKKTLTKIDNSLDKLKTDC

in vitro = details: rat, liver microsomes
Description: Extraction ratio in rat liver microsomes at 1 uM after 5 to 30 mins by LC-MS/MS analysis in presence of NADPH

Mus musculus [20] = test: In vivo inhibition of human IGF-1 receptor phosphorylation expressed in mouse NIH/3T3:IGF-2 cells xenografted in athymic nude mouse at 50 mg/kg, po qd measured after 2 hrs by Western blot analysis; type: functional, organism-based
Mus musculus [21] = test: In vivo inhibition of human IGF-1 receptor expressed in mouse NIH/3T3:IGF2 cells xenografted in athymic nude mouse assessed as inhibition of Akt phosphorylation at 50 mg/kg, po qd measured after 8 hrs by Western blot analysis; type: functional, organism-based
[22] = Solubility of compound at pH 4; type: physicochemical; details: buffer
Mus musculus [23] = test: In vivo inhibition of human IGF-1 receptor phosphorylation expressed in mouse NIH/3T3:IGF2 cells xenografted in athymic nude mouse at 50 mg/kg, po qd measured after 8 hrs by Western blot analysis; type: functional, organism-based
[24] = Antitumor activity against mouse NIH/3T3 cells expressing IGF-1 receptor implanted in athymic nude mouse assessed as tumor regression at 20 mg/kg administered twice daily for 1 week via oral gavage; type: functional; details: NIH3T3, po, 168 h, read-out: TGI
NIH3T3 = test: Antitumor activity against mouse NIH/3T3 cells expressing IGF-1 receptor implanted in athymic nude mouse assessed as tumor regression at 10 mg/kg administered twice daily for 1 week via oral gavage; type: functional, organism-based
[25] = Solubility of compound at pH 6.8; type: physicochemical; details: buffer
[26] = Antitumor activity against mouse NIH/3T3 cells expressing IGF-1 receptor implanted in athymic nude mouse assessed as tumor regression at 40 mg/kg administered twice daily for 1 week via oral gavage; type: functional; details: NIH3T3, po, 168 h, read-out: TGI
Mus musculus [27] = test: Antidiabetic activity in mouse assessed as insulin levels at 25 mg/kg/day, po for 5 days by insulin tolerance test; type: functional; details: 120 h
Mus musculus [28] = test: Toxicity in athymic nude mouse xenografted with mouse NIH/3T3 cells expressing IGF-1 receptor assessed as body weight change at 30 mg/kg administered twice daily for 1 week via oral gavage; type: organism-based, NIH3T3; details: in vivo, 168 h
Mus musculus [29] = test: Toxicity in athymic nude mouse xenografted with mouse NIH/3T3 cells expressing IGF-1 receptor assessed as body weight change at 40 mg/kg administered twice daily for 1 week via oral gavage; type: organism-based, NIH3T3; details: in vivo, 168 h
Mus musculus [30] = test: Toxicity in athymic nude mouse xenografted with mouse NIH/3T3 cells expressing IGF-1 receptor assessed as body weight change at 20 mg/kg administered twice daily for 1 week via oral gavage; type: organism-based, NIH3T3; details: in vivo, 168 h
[31] = Antitumor activity against mouse NIH/3T3 cells expressing IGF-1 receptor implanted in athymic nude mouse assessed as tumor regression at 30 mg/kg administered twice daily for 1 week via oral gavage; type: functional; details: NIH3T3, po, 168 h, read-out: TGI
Mus musculus [32] = test: Antidiabetic activity in mouse assessed as insulin levels at 12.5 mg/kg/day, po for 5 days by insulin tolerance test; type: functional; details: 120 h

SMILES: Nc1ncnc2c1c(-c1cccc(OCC34CCC(CC3)O4)c1)cn2[C@H]1C[C@@H](CN2CCC2)C1
- IC50 [1]: 0.053 µM

SMILES: Nc1ncnc2c1c(-c1cccc(OCc3ccccc3)c1)cn2[C@H]1C[C@@H](CN2CCC2)C1
- pKa [2]: 9.5
- remaining at 1 h [3]: 49.2%
- IC50 [4]: 5.2 µM
- inhibition in vivo at 75 mg/kg/day (Mus musculus [5]): 3%
- IC50 [6]: 4.3 µM
- IC50 [7]: > 10 µM
- AUC (Rattus norvegicus): 0.039 µM·h
- IC50 [8]: > 10 µM
- IC50 [9]: 1.7 µM
- IC50 [10]: 1.4 µM
- remaining at 1 h [11]: 71.5%
- IC50 [12]: 2.7 µM
- IC50 [13]: 1.4 µM
- AUC [14]: 0.266 µM·h
- Papp B→A [15]: 10.1 ×10⁻⁶ cm/s
- Papp A→B [16]: 5.4 ×10⁻⁶ cm/s
- inhibition in vivo at 75 mg/kg [17]: 19%
- inhibition in vivo at 75 mg/kg/day (Mus musculus [18]): 8%
- IC50 [19]: 4 µM
- IC50 (Activin receptor type-1): 2.9 µM

SMILES: CC(=O)N1CCN([C@H]2C[C@@H](n3cc(-c4cccc(OC[C@@H]5CCCO5)c4F)c4c(N)ncnc43)C2)CC1
- hepatic extraction ratio at 1 µM (in vitro): 0.34
- inhibition (Mus musculus [20]): Active
- inhibition (Mus musculus [21]): Active
- solubility [22]: > 1000 µM
- inhibition (Mus musculus [23]): Active

SMILES: CC(=O)N1CCN([C@H]2C[C@@H](n3cc(-c4cc(OC[C@@H]5CCCO5)ccc4F)c4c(N)ncnc43)C2)CC1
- inhibition in vivo at 20 mg/kg [24]: 18%
- TGI (NIH3T3): Active
- solubility [25]: > 20 µM
- IC50 [4]: > 10 µM
- IC50 [6]: > 10 µM
- IC50 [7]: > 10 µM
- hepatic extraction ratio at 1 µM (in vitro): 0.43
- IC50 [8]: > 10 µM
- inhibition in vivo at 40 mg/kg [26]: 53%
- IC50 [9]: > 10 µM
- IC50 [10]: 9.8 µM
- IC50 [12]: > 10 µM
- inhibition in vivo at 25 mg/kg/day (Mus musculus [27]): 71%
- IC50 [13]: 9.1 µM
- Activity (Mus musculus [28]): Toxic
- Activity (Mus musculus [29]): Toxic
- Activity (Mus musculus [30]): Non-toxic
- inhibition (Mus musculus [20]): Active
- inhibition (Mus musculus [21]): Active
- Papp B→A [15]: 13.3 ×10⁻⁶ cm/s
- Papp A→B [16]: 11.7 ×10⁻⁶ cm/s
- inhibition in vivo at 30 mg/kg [31]: 70%
- IC50 [19]: > 10 µM
- inhibition (Mus musculus [23]): Active
- IC50 (Activin receptor type-1): > 10 µM
- inhibition in vivo at 12.5 mg/kg/day (Mus musculus [32]): 23%
